Data taken from patent US7759366B2 (Sanofi-Aventis, priority 2006, dated 2010).
Read-outs that look alike come from different tables or passages of the source.

Legend:
hCB1R = hCB1R (Homo sapiens, UniProt P21554); assay: In vitro functional assay (FLIPR, intracellular Ca2+) with recombinant HEK293 cells, CB1; assay type: cell-based; set-up: expressed in transfected cells; host or cells: HEK293
Text: In Vitro Functional Assays with Recombinant Cells:

hCB2R = hCB2R (Homo sapiens, UniProt P34972); assay: In vitro functional assay (FLIPR, intracellular Ca2+) with recombinant HEK293 cells, CB2;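 note: intracellular Ca2+ was tracked with the fluorescent dye Fluo-4 loaded into the cells before test substance addition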
[1] = recombinant HEK293 cells expressing CB1 and Galpha16, 20 min preincubation, then reference agonist, Ca2+ change, read-out: hCB1R: FLIPR, IC50
[2] = read-out: hCB2R: FLIPR, IC50, recombinant HEK293 cells expressing CB2 and Galpha16, 20 min preincubation, then reference agonist, Ca2+ change

Sequence of hCB2R (P34972 whole entry): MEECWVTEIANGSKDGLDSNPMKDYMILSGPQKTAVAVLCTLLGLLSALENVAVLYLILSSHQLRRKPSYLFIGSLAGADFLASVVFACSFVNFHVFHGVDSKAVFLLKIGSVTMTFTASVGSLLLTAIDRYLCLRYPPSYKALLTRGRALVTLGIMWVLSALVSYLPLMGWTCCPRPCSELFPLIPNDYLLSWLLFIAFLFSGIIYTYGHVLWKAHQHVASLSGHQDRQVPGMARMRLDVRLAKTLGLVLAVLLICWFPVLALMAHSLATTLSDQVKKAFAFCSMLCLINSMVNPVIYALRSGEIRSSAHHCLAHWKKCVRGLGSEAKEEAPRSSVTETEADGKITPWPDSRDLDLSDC
Sequence of hCB1R (P21554 whole entry): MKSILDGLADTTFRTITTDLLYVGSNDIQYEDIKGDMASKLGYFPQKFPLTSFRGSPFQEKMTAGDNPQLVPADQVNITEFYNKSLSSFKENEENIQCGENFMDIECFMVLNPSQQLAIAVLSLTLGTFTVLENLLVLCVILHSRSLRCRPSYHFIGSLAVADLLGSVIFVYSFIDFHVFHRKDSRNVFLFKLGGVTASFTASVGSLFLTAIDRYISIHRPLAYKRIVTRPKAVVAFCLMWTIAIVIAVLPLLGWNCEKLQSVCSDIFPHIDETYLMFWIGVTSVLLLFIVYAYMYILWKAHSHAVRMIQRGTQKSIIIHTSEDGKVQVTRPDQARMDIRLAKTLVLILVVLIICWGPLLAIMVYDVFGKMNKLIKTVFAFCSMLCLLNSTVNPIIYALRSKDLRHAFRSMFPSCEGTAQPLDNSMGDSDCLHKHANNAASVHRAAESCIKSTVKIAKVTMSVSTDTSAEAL

Structure (SMILES)	IC50 (hCB1R; [1])	IC50 (hCB2R)	IC50 (hCB1R)	IC50 (hCB2R; [2])
CC1(C)C(=O)N(c2ccc(C#N)c(C(F)(F)F)c2)C(=O)N1Cc1ccc(Nc2ccccc2)cc1 [Example 30, 4-[4,4-Dimethyl-2,5-dioxo-3-(4-phenylaminobenzyl)imidazolidin-1-yl]-2-trifluoromethylbenzonitrile]	208 nM	> 10 µM		
CC1(C)C(=O)N(c2ccc(C#N)c(C(F)(F)F)c2)C(=O)N1Cc1c(Cl)cc(Cl)cc1Nc1ccc(F)cc1F [Example 36, 4-{3-[2,4-dichloro-6-(2,4-difluorophenylamino)benzyl]-4,4-dimethyl-2,5-dioxoimidazolidin-1-yl}-2-trifluoromethylbenzonitrile]			11 nM	> 10 µM
CC1(C)C(=O)N(c2ccc(C#N)c(C(F)(F)F)c2)C(=O)N1Cc1ccc(C(F)(F)F)cc1Nc1ccc(Cl)cc1 [Example 57, 4-{3-[2-(4-chlorophenylamino)-4-trifluoromethylbenzyl]-4,4-dimethyl-2,5-dioxoimidazolidin-1-yl}-2-trifluoromethylbenzonitrile]			36 nM	> 10 µM
CC1(C)C(=O)N(c2ccc(C#N)c(C(F)(F)F)c2)C(=O)N1Cc1ccccc1Nc1ccc(C#N)cc1F [Example 73, 4-{3-[2-(2-fluoro-4-cyanophenylamino)benzyl]-4,4-dimethyl-2,5-dioxoimidazolidin-1-yl}-2-trifluoromethylbenzonitrile]			7 nM	> 10 µM
COc1ccc(Nc2ccccc2CN2C(=O)N(c3ccc(C#N)c(C(F)(F)F)c3)C(=O)C2(C)C)c(F)c1 [Example 74, 4-{3-[2-(2-fluoro-4-methoxyphenylamino)benzyl]-4,4-dimethyl-2,5-dioxoimidazolidin-1-yl}-2-trifluoromethylbenzonitrile]			4 nM	> 10 µM
COc1ccc(Nc2ccccc2CN2C(=O)N(c3ccc(C#N)c(C(F)(F)F)c3)C(=O)C2(C)C)cc1OC [Example 75, 4-{3-[2-(3,4-dimethoxyphenylamino)benzyl]-4,4-dimethyl-2,5-dioxoimidazolidin-1-yl}-2-trifluoromethylbenzonitrile]			49 nM	> 10 µM
CC1(C)C(=O)N(c2ccc(C#N)c(C(F)(F)F)c2)C(=O)N1Cc1ccccc1Nc1ccc(CC#N)cc1 [Example 78, 4-{3-[2-(4-cyanomethylphenylamino)benzyl]-4,4-dimethyl-2,5-dioxoimidazolidin-1-yl}-2-trifluoromethylbenzonitrile]			4 nM	> 10 µM
CC1(C)C(=O)N(c2ccc(C#N)c(C(F)(F)F)c2)C(=O)N1Cc1ccccc1Nc1ccc(S(N)(=O)=O)cc1F [Example 81, 4-{2-[3-(4-cyano-3-trifluoromethylphenyl)-5,5-dimethyl-2,4-dioxoimidazolidin-1-ylmethyl]phenylamino}-3-fluorobenzenesulfonamide]	144 nM	> 10 µM		
COC(=O)Cc1ccc(Nc2ccccc2CN2C(=O)N(c3ccc(C#N)c(C(F)(F)F)c3)C(=O)C2(C)C)cc1 [Example 82, methyl (4-{2-[3-(4-cyano-3-trifluoromethylphenyl)-5,5-dimethyl-2,4-dioxoimidazolidin-1-ylmethyl]phenylamino}phenyl)acetate]			52 nM	> 10 µM
COc1ccc(Nc2ccccc2CN2C(=O)N(c3ccc(C#N)c(C(F)(F)F)c3)C(=O)C2(C)C)cn1 [Example 83, 4-{3-[2-(6-methoxypyridin-3-ylamino)benzyl]-4,4-dimethyl-2,5-dioxoimidazolidin-1-yl}-2-trifluoromethylbenzonitrile]			9 nM	> 10 µM
CC1(C)C(=O)N(c2ccc(C#N)c(C(F)(F)F)c2)C(=O)N1Cc1ccccc1Nc1ccc(OC(F)(F)F)cc1F [Example 85, 4-{3-[2-(2-fluoro-4-trifluoromethoxyphenylamino)benzyl]-4,4-dimethyl-2,5-dioxoimidazolidin-1-yl}-2-trifluoromethylbenzonitrile]			7 nM	> 10 µM
